The assay relates to P388 leukemia ip, CD2F1 mice, survival T/C. The assay can be described thus: NCI In Vivo Anticancer Drug Screen. Data for tumor model P388 Leukemia (intraperitoneal) in CD2F1 (CDF1) mice. The note with it: endpoint: median survival time, higher = longer survival. Put shortly:
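Mice carrying the transplanted tumor received test compound or vehicle. Survival was recorded in each group, and the value is the treated-group measurement divided by that of the vehicle-treated control group.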

The mark [1] stands for this setting: dose: 60.0 mg/kg/injection, schedule: Q01DX005 (ip), vehicle: Klucel (hydroxypropylcellulose) (HPC).
Setting [2] is: dose: 120.0 mg/kg/injection, schedule: Q01DX005 (ip), vehicle: Klucel (hydroxypropylcellulose) (HPC).
The mark [3] stands for this setting: dose: 50.0 mg/kg/injection, schedule: Q01DX005 (ip), vehicle: Klucel (hydroxypropylcellulose) (HPC).
Where [4] appears, read: dose: 100.0 mg/kg/injection, schedule: Q01DX005 (ip), vehicle: Klucel (hydroxypropylcellulose) (HPC).
Where [5] appears, read: dose: 60.0 mg/kg/injection, schedule: Q01DX005 (ip), vehicle: saline with Tween-80.
Where [6] appears, read: dose: 120.0 mg/kg/injection, schedule: Q01DX005 (ip), vehicle: saline with Tween-80.
Where [7] appears, read: dose: 240.0 mg/kg/injection, schedule: Q01DX005 (ip), vehicle: saline with Tween-80.
The mark [8] stands for this setting: dose: 50.0 mg/kg/injection, schedule: Q01DX005 (ip), vehicle: saline with Tween-80.
Setting [9] is: dose: 100.0 mg/kg/injection, schedule: Q01DX005 (ip), vehicle: saline with Tween-80.
[10] abbreviates: dose: 200.0 mg/kg/injection, schedule: Q01DX005 (ip), vehicle: saline with Tween-80.
Setting [11] is: dose: 50.0 mg/kg/injection, schedule: Q01DX009 (ip), vehicle: Klucel (hydroxypropylcellulose) (HPC).

“And” between values parts separate entries of the source, which are not always exact repeats. Equal values may be shown once. Inconclusive results and toxic doses are left out.

The record followed here is PubChem BioAssay AID330 (DTP/NCI, 2004).

With `Cc1cc2nc3c(=O)[nH]c(=O)nc-3n(CC=O)c2cc1C`, the T/C is, setting by setting: (dose: 16.0 mg/kg/injection, schedule: Q01DX009 (ip), vehicle: saline with Tween-80) 92 % of control; (dose: 32.0 mg/kg/injection, schedule: Q01DX009 (ip), vehicle: saline with Tween-80) 91 % of control; (dose: 64.0 mg/kg/injection, schedule: Q01DX009 (ip), vehicle: saline with Tween-80) 90 % of control; (dose: 128.0 mg/kg/injection, schedule: Q01DX009 (ip), vehicle: saline with Tween-80) 90 % of control; (dose: 135.0 mg/kg/injection, schedule: Q01DX009 (ip), vehicle: saline with Tween-80) 104 % of control; (dose: 180.0 mg/kg/injection, schedule: Q01DX009 (ip), vehicle: saline with Tween-80) 104 % of control. In addition, the T/C by setting is: (dose: 240.0 mg/kg/injection, schedule: Q01DX009 (ip), vehicle: saline with Tween-80) 104 % of control; (dose: 256.0 mg/kg/injection, schedule: Q01DX009 (ip), vehicle: saline with Tween-80) 102 % of control; (dose: 320.0 mg/kg/injection, schedule: Q01DX009 (ip), vehicle: saline with Tween-80) 102 % of control.

In the case of `COC1(NS(=O)(=O)c2ccc(C)cc2)CC1`, the T/C is 103 % of control under setting [1] and 91 % of control under setting [2].

With `CCOC(=O)C(Cc1ccc(N(CCCl)CCCl)cc1)NC(=O)C(NC(C)=O)C(C)C` (stereo not given), the T/C by setting is: (dose: 5.0 mg/kg/injection, schedule: Q04DX003 (ip), vehicle: water) 123 % of control; (dose: 20.0 mg/kg/injection, schedule: Q04DX003 (ip), vehicle: water) 160 % of control; (dose: 40.0 mg/kg/injection, schedule: Q04DX003 (ip), vehicle: water) 241 % of control.

Turning to `OCC(O)COCCCCCCCCCCCCCC1C=CCC1` (stereo not given), the T/C runs as follows: (dose: 100.0 mg/kg/injection, schedule: Q04DX003 (ip), vehicle: saline) 95 % of control; (dose: 200.0 mg/kg/injection, schedule: Q04DX003 (ip), vehicle: saline) 89 % of control; (dose: 400.0 mg/kg/injection, schedule: Q04DX003 (ip), vehicle: saline) 96 % of control.

As to `CC1CC2OC(=O)CC2C(O)C2(C)C(OC(C)(C)C)CCC12` (stereo not given), the T/C runs as follows: under setting [3], 100 % of control; under setting [4], 90 % of control.

Consider `C=C(C)[C@]12CC(C)C34OC(/C=C\C=C\CCCCCCCCC)(O[C@@H]1[C@@H]3[C@@H]1O[C@]1(CO)[C@@H](O)[C@]1(O)C(=O)C(C)=C[C@@H]41)O2` (stereo not given in full), for which the T/C (dose: 0.75 mg/kg/injection, schedule: Q01DX009 (ip), vehicle: alcohol) was 160 % of control; the T/C (dose: 1.5 mg/kg/injection, schedule: Q01DX009 (ip), vehicle: alcohol) is 160 % of control and 163 % of control.

As for `COC1=C(N)C(=O)c2ncccc2C1=O`, the T/C reads like this: (dose: 3.12 mg/kg/injection, schedule: Q01DX009 (ip), vehicle: saline with Tween-80) 101 % of control; (dose: 4.0 mg/kg/injection, schedule: Q01DX009 (ip), vehicle: DMSO) 100 % of control; (dose: 6.25 mg/kg/injection, schedule: Q01DX009 (ip), vehicle: saline with Tween-80) 95 % of control; (dose: 8.0 mg/kg/injection, schedule: Q01DX009 (ip), vehicle: DMSO) 108 % of control; (dose: 12.5 mg/kg/injection, schedule: Q01DX009 (ip), vehicle: saline with Tween-80) 94 % of control; (dose: 16.0 mg/kg/injection, schedule: Q01DX009 (ip), vehicle: DMSO) 102 % of control.

Turning to `Cc1oc2ccccc2c(=O)c1CO`, the T/C is 104 % of control under setting [5], 100 % of control under setting [6] and 100 % of control under setting [7].

Regarding `COC1=CC(=O)c2c(O)cc(OC)cc2C1=O`, the T/C (dose: 1.25 mg/kg/injection, schedule: Q01DX009 (ip), vehicle: saline with Tween-80) was 106 % of control and 116 % of control; the T/C (dose: 2.5 mg/kg/injection, schedule: Q01DX009 (ip), vehicle: saline with Tween-80) was 101 % of control and 108 % of control; the T/C (dose: 5.0 mg/kg/injection, schedule: Q01DX009 (ip), vehicle: saline with Tween-80) is 100 % of control and 114 % of control; the T/C (dose: 10.0 mg/kg/injection, schedule: Q01DX009 (ip), vehicle: saline with Tween-80) was 100 % of control and 92 % of control; the T/C (dose: 20.0 mg/kg/injection, schedule: Q01DX009 (ip), vehicle: saline with Tween-80) was 107 % of control and 92 % of control.

Regarding `COc1cc(CCN=Cc2cccnc2)c([N+](=O)[O-])cc1OC`, the T/C is 101 % of control under setting [3]; 100 % of control under setting [4]; 100 % of control (dose: 200.0 mg/kg/injection, schedule: Q01DX005 (ip), vehicle: Klucel (hydroxypropylcellulose) (HPC)).

For the molecule `Cc1cccc(C)c1NC(=O)Nc1cccc(C(F)(F)F)c1`, the T/C under setting [5] is 100 % of control, the T/C under setting [6] was 100 % of control and the T/C under setting [7] was 90 % of control.

On to `CCN(CC)c1cccc(OC(=O)Nc2cccc(C(F)(F)F)c2)c1`, for which the T/C is 106 % of control under setting [5], 94 % of control under setting [6] and 97 % of control under setting [7].

`C=C1CC/C=C(\C)C(=O)C[C@@H]2[C@@H]1CC2(C)C`: the T/C is 106 % of control (dose: 0.37 mg/kg/injection, schedule: Q01DX009 (ip), vehicle: saline + alcohol); 108 % of control (dose: 0.75 mg/kg/injection, schedule: Q01DX009 (ip), vehicle: saline + alcohol); 106 % of control (dose: 1.5 mg/kg/injection, schedule: Q01DX009 (ip), vehicle: saline + alcohol); 94 % of control (dose: 3.0 mg/kg/injection, schedule: Q01DX009 (ip), vehicle: saline + alcohol); 98 % of control (dose: 6.0 mg/kg/injection, schedule: Q01DX009 (ip), vehicle: saline + alcohol).

`CC(=O)OCc1nc2ncnc(N)c2[nH]1`: the T/C reads like this: (dose: 12.5 mg/kg/injection, schedule: Q01DX005 (ip), vehicle: distilled water + Tween-80) 99 % of control; (dose: 25.0 mg/kg/injection, schedule: Q01DX005 (ip), vehicle: distilled water + Tween-80) 103 % of control; (dose: 50.0 mg/kg/injection, schedule: Q01DX005 (ip), vehicle: distilled water + Tween-80) 108 % of control; (dose: 100.0 mg/kg/injection, schedule: Q01DX005 (ip), vehicle: distilled water + Tween-80) 97 % of control; (dose: 200.0 mg/kg/injection, schedule: Q01DX005 (ip), vehicle: distilled water + Tween-80) 97 % of control.

As for `CCc1nc(N)nc(N)c1-c1ccc(N2CCCCC2)cc1`, the T/C runs as follows: (dose: 7.5 mg/kg/injection, schedule: Q01DX005 (ip), vehicle: saline with Tween-80) 112 % of control; (dose: 15.0 mg/kg/injection, schedule: Q01DX005 (ip), vehicle: saline with Tween-80) 100 % of control; (dose: 30.0 mg/kg/injection, schedule: Q01DX005 (ip), vehicle: saline with Tween-80) 99 % of control.

As for `Cc1cccc(Cl)c1NC(=O)N(C)c1ccccc1`, the T/C was 99 % of control under setting [5], 100 % of control under setting [6] and 97 % of control under setting [7].

For `CCOc1ccccc1NC(=O)CC(=O)N1N=C(C)C(N=Nc2ccccc2C(=O)O)C1=O` (stereo not given), the T/C was 108 % of control under setting [8], 104 % of control under setting [9] and 92 % of control under setting [10].

In the case of `Nc1ccc(-c2csc(-c3ccccc3)n2)c(Cl)c1`, the T/C was 98 % of control and 99 % of control (dose: 12.5 mg/kg/injection, schedule: Q01DX009 (ip), vehicle: Klucel (hydroxypropylcellulose) (HPC)); 103 % of control and 115 % of control (dose: 25.0 mg/kg/injection, schedule: Q01DX009 (ip), vehicle: Klucel (hydroxypropylcellulose) (HPC)); 103 % of control and 113 % of control under setting [11].

Turning to `CN(C)c1ccc(/C=C/c2ccnc3c(O)cccc23)cc1`, the T/C under setting [11] was 113 % of control; the T/C (dose: 100.0 mg/kg/injection, schedule: Q01DX009 (ip), vehicle: Klucel (hydroxypropylcellulose) (HPC)) was 104 % of control; the T/C (dose: 200.0 mg/kg/injection, schedule: Q01DX009 (ip), vehicle: Klucel (hydroxypropylcellulose) (HPC)) is 95 % of control.

As for `OC1(c2cc3ccccc3c3ccccc23)c2ccccc2-c2ccccc21`, the T/C was 98 % of control under setting [8], 100 % of control under setting [9] and 100 % of control under setting [10].

With `COC1/C=C/OC2(C)Oc3c(C)c(O)c4c(O)c(c(/C=N\N(C)C56CC7CC(CC(C7)C5)C6)c(O)c4c3C2=O)NC(=O)C(C)=C/C=C/C(C)C(O)C(C)C(O)C(C)C(OC(C)=O)C1C` (stereo not given), the T/C by setting is: under setting [1], 93 % of control; under setting [2], 96 % of control; (dose: 240.0 mg/kg/injection, schedule: Q01DX005 (ip), vehicle: Klucel (hydroxypropylcellulose) (HPC)) 102 % of control.
